These results are taken from patent US9458141B2, “Low molecular weight thyroid stimulating hormone receptor (TSHR) agonists” (The United States of America, as represented by the …, priority 2008, dated 2016).

Each structure is given as a SMILES string.

The term AC50 denotes the concentration giving half of the maximal activity seen.

The experiment concerns the target T1, human TSHR (Homo sapiens, UniProt P16473).
T1 construct: expressed in transfected cells
In words: Homogeneous Time Resolved Fluorescence (HTRF) cAMP assay, TSHR cell line. The format is cell-based. Particulars: for AC50: HTRF cAMP, TSHR cell line, 30 minute incubation, read-out: AC50; for Emax: read-out: Maximum Activity compared to TSH, 100% activity = response of 30 mU/ml TSH, 0% = DMSO control; for Maximum Activity compared to TSH: 100% activity = response of 30 mU/ml TSH, 0% = DMSO control, in %. From the text:
Generation of Stable Cell-Lines Expressing TSHR, LHCGR or FSHR.
cDNA for human TSHR was amplified by PCR from hTSHR-pSVL (1) and inserted into the pcDNA3.1(−)/hygromycin vector using restriction sites XhoI and BamHI. cDNA for human LHCGR was amplified by PCR from hLHR-pGS5 (2) and was inserted into the pcDNA3.1(+)/hygromycin vector using restriction sites BamHI and XhoI. The FSHR cDNA in pcDNA3.1 was obtained from the Missouri S&T cDNA Resource Center (www.cDNA.org) and was subcloned into the pcDNA3.1(−)/hygromycin vector. Constructs were confirmed by sequencing (MWG Biotech). HEK-EM 293 cells were transfected with the cDNA of TSHR, LHCGR or FSHR using FuGENE 6 Transfection reagent (Roche Diagnostics) according to the manufacturer's protocol. Two days after transfection cells were passaged and grown in Dulbecco's modified Eagle's Medium (DMEM) supplemented with 10% fetal bovine serum, 100 units/ml penicillin and 10 μg/ml streptomycin (Life Technologies Inc.) and with hygromycin (250 μg/ml) as a selection marker. After 7 to 10 days hygromycin-resistant clones were selected, and after a few days of further growth submitted for a cAMP assay to identify clones that stably express the appropriate receptor. Cell Culture. Cells stably expressing TSHR, LHCGR or FSHR and parental HEK 293 cells were maintained in DMEM medium containing 10% FBS, 100 units/ml Penicillin, 100 μg/ml Streptomycin, at 37° C. in 5% CO2. For the cells lines stably expressing TSHR, LHCGR or FSHR, additional 250 μg/ml Hygromycin was added during the cell culture. The cells were seeded at a density of 3 to 4 million cells in a T175 flask containing 35 ml of media and were allowed to grow for 3 days to reach 80-90% confluence. A flask of HEK 293 cells at this density generally yielded 30 million cells total. Homogeneous Time Resolved Fluorescence (HTRF) cAMP Assay. Compounds were assayed using a HTRF cAMP detection kit (Cisbio, Bedford, Mass.) on both TSHR cell line and parental cell line. Briefly, 750 cells were plated in 2.5 μl/well of complete media (DMEM containing 10% FCS) in 1536 well solid bottom white plates and 20 nl/well compound in DMSO solution or controls was added. Following 30 minute incubation at room temperature, 2.5 μl/well of labeled d2 cAMP and 2.5 μl/well of anti-cAMP antibody (both diluted 1:20 in lysis buffer) were added to each well using a flying reagent dispenser (Aurora Discovery, San Diego). Plates were measured using the Envision plate reader (PerkinElmer, Boston, Mass.) with excitation at 330 nm and emissions of 615 nm and 660 nm. Compound Preparation. […] Data Analysis. […] The EC50 values of compounds were calculated from the concentration-response curves by nonlinear regression analysis using Prism software (GraphPad Software, San Diego, Calif.). Confirmatory cAMP Assay and Test for Selectivity Towards TSHR 50,000 cells/well were plated in complete media (DMEM containing 10% FCS) in 96 well plates. […] Following aspiration of the medium after incubation with compounds, cells were lysed using lysis buffer of the cAMP-Screen Direct™ System (Applied Biosystems, Cat # CSD200). The cAMP content of the cell lysate was determined using the manufacturer's protocol. […] Below is a List of Compounds that were Assayed via the Homogeneous Time Resolved Fluorescence (HTRF) cAMP Assay.
On the technique in general: Time-resolved FRET reads energy transfer from a long-lived donor to a nearby acceptor.

T1 sequence (P16473 21-764): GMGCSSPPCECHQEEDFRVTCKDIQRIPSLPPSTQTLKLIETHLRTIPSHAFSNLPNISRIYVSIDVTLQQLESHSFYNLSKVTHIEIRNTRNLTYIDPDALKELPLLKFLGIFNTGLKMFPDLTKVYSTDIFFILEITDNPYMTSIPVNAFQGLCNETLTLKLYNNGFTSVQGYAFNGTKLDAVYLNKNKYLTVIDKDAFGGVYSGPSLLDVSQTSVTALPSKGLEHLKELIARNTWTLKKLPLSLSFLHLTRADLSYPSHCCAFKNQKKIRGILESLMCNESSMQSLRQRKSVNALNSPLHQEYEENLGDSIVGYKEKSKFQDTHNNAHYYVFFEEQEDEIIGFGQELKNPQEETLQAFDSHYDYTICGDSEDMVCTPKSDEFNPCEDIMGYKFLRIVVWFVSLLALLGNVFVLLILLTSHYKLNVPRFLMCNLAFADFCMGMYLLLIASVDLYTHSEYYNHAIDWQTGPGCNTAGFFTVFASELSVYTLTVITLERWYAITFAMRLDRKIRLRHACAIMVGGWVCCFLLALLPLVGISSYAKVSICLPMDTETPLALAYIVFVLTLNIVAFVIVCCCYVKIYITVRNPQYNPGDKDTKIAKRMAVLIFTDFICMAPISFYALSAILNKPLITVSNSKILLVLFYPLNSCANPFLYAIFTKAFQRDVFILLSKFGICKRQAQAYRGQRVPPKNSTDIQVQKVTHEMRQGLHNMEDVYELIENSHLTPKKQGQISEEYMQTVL

Turning to `COc1ccc(C2Cc3ccccc3C(=O)N2Cc2ccco2)cc1COc1ccc(NC(C)=O)cc1` (stereo not drawn) [Structure 29], the AC50 is 17.8 µM and the Emax was found to be 139%.
Take `COc1ccc(CN2C(=O)c3ccccc3NC2c2ccc(OC)c(COc3ccc(NC(C)=O)cc3)c2)cc1` (stereo not drawn) [Structure 30]: the “Maximum Activity compared to TSH” value was found to be 63.65 and the concentration at half-maximal activity (AC50) came out at 3.16 µM.
Take `COc1ccc(CN(Cc2ccccc2)C(=O)c2ccccc2)cc1COc1ccc(NC(C)=O)cc1` [Structure 31]: the “Maximum Activity compared to TSH” value stood at 153.40 and the half-maximal activity concentration (AC50) is 11.2 µM.
With `COc1ccc(C2Nc3ccc(NC(C)=O)cc3C(=O)N2Cc2ccccc2)cc1COc1ccc(NC(C)=O)cc1` (stereo not drawn) [Structure 32], the “Maximum Activity compared to TSH” value is listed as 137.62 and the AC50 came out at 15.8 µM.
As to `COc1ccc(-c2nc3ccccc3c(=O)n2Cc2ccco2)cc1COc1ccc(NC(C)=O)cc1` [Structure 33], the AC50 stood at 17.8 µM and the Emax stood at 169%.
Consider `COc1ccc(C2Nc3ccccc3C(=O)N2Cc2ccco2)cc1COc1ccc(NC(C)=O)cc1` (stereo not drawn) [Structure 34], for which the “Maximum Activity compared to TSH” value came to 122.30 and the AC50 came to 15.8 µM.
As to `COc1ccc(C2Oc3ccccc3C(=O)N2Cc2ccccc2)cc1COc1ccc(NC(C)=O)cc1` (stereo not drawn) [Structure 35], the “Maximum Activity compared to TSH” value is 115.01 and the AC50 is 12.6 µM.
For `COc1ccc(C2Nc3ccc(NC(=O)CO)cc3C(=O)N2Cc2cccc(Cl)c2)cc1COc1ccc(NC(C)=O)cc1` (stereo not drawn) [Structure 36], the half-maximal activity concentration (AC50) came out at 5.62 µM and the Emax amounted to 115%.
As to `COc1ccc(C2Nc3ccccc3C(=O)N2Cc2ccccc2)cc1CSc1ccc(NC(C)=O)cc1` (stereo not drawn) [Structure 38], the “Maximum Activity compared to TSH” value stood at 573.36 and the AC50 came out at 7.08 µM.
`CCCCN1C(=O)c2ccccc2NC1c1ccc(OC)c(COc2ccc(NC(C)=O)cc2)c1` (stereo not drawn) [Structure 39]: the “Maximum Activity compared to TSH” value came to 123.60 and the half-maximal activity concentration (AC50) was 20 µM.
For `COc1ccc(CN(Cc2ccccc2)C(=O)c2ccccc2)cc1COc1ccc(NC(C)=O)cc1` [Structure 40], the “Maximum Activity compared to TSH” value amounted to 128.80 and the AC50 was 11.2 µM.
Consider `COc1ccc(CN(Cc2ccccc2)C(=O)c2ccco2)cc1COc1ccc(NC(C)=O)cc1` [Structure 41], for which the “Maximum Activity compared to TSH” value came out at 122.50 and the AC50 was determined as 15.8 µM.
On the same counts, the results for `COc1ccc(C2Nc3ccccc3C(=O)N2Cc2ccco2)cc1COc1ccc(NC(C)=O)cc1` (stereo not drawn) [Structure 42] are 131.51 and 14.1 µM.
For the compound `COc1ccc(C2Nc3ccc(NC(=O)CO)cc3C(=O)N2Cc2cccc(Cl)c2)cc1COc1ccc(NC(C)=O)cc1` (stereo not drawn) [Structure 43], the “Maximum Activity compared to TSH” value was 128.45 and the concentration at half-maximal activity (AC50) came out at 10 µM.
On the same counts, the results for `COc1ccc(C2Nc3ccccc3C(=O)N2Cc2cccc(Cl)c2)cc1COc1ccc(NC(C)=O)cc1` (stereo not drawn) [Structure 44] are 105.58 and 7.08 µM.
On the same counts, the results for `COc1ccc(C(=O)N(Cc2ccccc2)Cc2ccc(OC)c(COc3ccc(NC(C)=O)cc3)c2)cc1` [Structure 45] are 141.85 and 14.1 µM.
In the case of `COc1cccc(CN2C(=O)c3ccccc3NC2c2ccc(OC)c(COc3ccc(NC(C)=O)cc3)c2)c1` (stereo not drawn) [Structure 46], the “Maximum Activity compared to TSH” value was determined as 182.52 and the AC50 amounted to 7.94 µM.
On the same counts, the results for `COc1ccc(-c2nc3ccccc3c(=O)n2Cc2ccco2)cc1COc1ccc(NC(C)=O)cc1` [Structure 47] are 165.16 and 25.1 µM.
With `COc1ccc(C2Nc3ccc(NC(=O)COC(C)=O)cc3C(=O)N2Cc2ccccc2)cc1COc1ccc(NC(C)=O)cc1` (stereo not drawn) [Structure 48], the “Maximum Activity compared to TSH” value stood at 106.48 and the AC50 amounted to 8.91 µM.
Turning to `COc1ccc(C2Nc3ccccc3C(=O)N2Cc2cccc(Cl)c2)cc1COc1ccc(NC(C)=O)cc1` (stereo not drawn) [Structure 50], the “Maximum Activity compared to TSH” value stood at 70.37 and the AC50 was found to be 2.82 µM.
Turning to `COc1ccc(-c2nc3ccccc3c(=O)n2Cc2ccccc2)cc1COc1ccc(NC(C)=O)cc1` [Structure 52], the “Maximum Activity compared to TSH” value was determined as 104.78 and the half-maximal activity concentration (AC50) came to 8.91 µM.
Take `COc1ccc(C2Nc3ccccc3C(=O)N2Cc2ccco2)cc1COc1ccc(NC(C)=O)cc1` (stereo not drawn) [Structure 53]: the “Maximum Activity compared to TSH” value was determined as 141.76 and the AC50 is 12.6 µM.
On the same counts, the results for `COc1ccc(C2Cc3ccccc3C(=O)N2Cc2ccccc2)cc1COc1ccc(NC(C)=O)cc1` (stereo not drawn) [Structure 54] are 115.69 and 10 µM.
As to `COc1ccc(CN(Cc2ccccc2)C(=O)c2ccccc2)cc1COc1ccc(NC(C)=O)cc1` [Structure 57], the “Maximum Activity compared to TSH” value was found to be 100.67 and the AC50 is 14.1 µM.
On to `COc1ccc(CN(Cc2ccccc2)C(=O)c2ccccc2)cc1COc1ccc(NC(C)=O)cc1` [Structure 58], for which the “Maximum Activity compared to TSH” value is given as 93.09 and the AC50 came out at 8.91 µM.
Take `COc1ccc(C2Nc3ccccc3C(=O)N2Cc2ccco2)cc1COc1ccc(NC(C)=O)cc1` (stereo not drawn) [Structure 59]: the “Maximum Activity compared to TSH” value was found to be 226.43 and the concentration at half-maximal activity (AC50) was determined as 17.8 µM.
Regarding `COc1ccc(C2Nc3ccccc3C(=O)N2Cc2cccc(C(F)(F)F)c2)cc1COc1ccc(NC(C)=O)cc1` (stereo not drawn) [Structure 60], the “Maximum Activity compared to TSH” value is 189.97 and the AC50 was determined as 6.31 µM.
With `COc1ccc(C2Nc3cccc(O)c3C(=O)N2Cc2ccccc2)cc1COc1ccc(NC(C)=O)cc1` (stereo not drawn) [Structure 61], the “Maximum Activity compared to TSH” value amounted to 302.11 and the concentration at half-maximal activity (AC50) amounted to 7.94 µM.
On the same counts, the results for `COc1ccc(-c2nc3ccccc3c(=O)n2Cc2ccccc2)cc1COc1ccc(NC(C)=O)cc1` [Structure 64] are 70.53 and 7.94 µM.
As to `COc1ccc(CN(Cc2ccccc2)C(=O)c2ccccc2O)cc1COc1ccc(NC(C)=O)cc1` [Structure 65], the concentration at half-maximal activity (AC50) was determined as 14.1 µM and the Emax is 51.6%.
With `COc1ccc(C2Nc3ccc(NC(=O)COC(C)=O)cc3C(=O)N2Cc2ccccc2)cc1COc1ccc(NC(C)=O)cc1` (stereo not drawn) [Structure 66], the “Maximum Activity compared to TSH” value stood at 64.52 and the AC50 turned out to be 8.91 µM.
Take `COc1ccc(C2Nc3ccccc3C(=O)N2CCc2ccccc2)cc1COc1ccc(NC(C)=O)cc1` (stereo not drawn) [Structure 67]: the “Maximum Activity compared to TSH” value was determined as 82.36 and the half-maximal activity concentration (AC50) was 7.94 µM.
For `COc1ccc(CN(Cc2ccccc2)C(=O)C2CC2)cc1COc1ccc(NC(C)=O)cc1` [Structure 68], the AC50 stood at 22.4 µM and the Emax came out at 74.8%.
For `COc1ccc(CN(Cc2ccccc2)C(=O)c2ccncc2)cc1COc1ccc(NC(C)=O)cc1` [Structure 69], the “Maximum Activity compared to TSH” value was found to be 44.83 and the AC50 was 25.1 µM.
On the same counts, the results for `COc1ccc(C2Nc3ccccc3C(=O)N2CCc2ccccc2)cc1COc1ccc(NC(C)=O)cc1` (stereo not drawn) [Structure 70] are 53.96 and 10 µM.
As to `COc1ccc(CN(Cc2ccccc2)C(=O)c2cccc(C#N)c2)cc1COc1ccc(NC(C)=O)cc1` [Structure 71], the “Maximum Activity compared to TSH” value was found to be 44.19 and the AC50 is 7.94 µM.
